Source: patent US8268858B2, “Compounds and methods for kinase modulation, and indications therefor” (Plexxikon Inc., priority 2006, dated 2012)

Columns and labels:
Type in all cases: biochemical
Jnk1 = Jnk1 (Homo sapiens, UniProt P45983); assay: Kinase activity assay, Jnk1; details: under the test conditions employed; read-out: activity toward kinase Jnk1, IC50
Experimental: (§1) The effect of potential modulators of kinase activity of c-kit and other kinases can be measured in a variety of different assays known in the art, e.g., biochemical assays, cell-based assays, and in vivo testing (e.g. model system testing). Such in vitro and/or in vivo assays and tests can be used in the present invention. As an exemplary kinase assay, the kinase activity of c-kit or Fms is measured in AlphaScreening (Packard BioScience). Assays for the activity of various kinases are described, for example, in U.S. patent application Ser. No. 11/473,347 (see also, PCT publication WO2007002433), the disclosure of which is hereby incorporated by reference.

Kdr = Kdr (Homo sapiens, UniProt P35968); assay: Kinase activity assay, Kdr; details: under the test conditions employed; read-out: activity toward kinase Kdr, IC50
Experimental: as §1

Kit = Kit (Homo sapiens, UniProt P10721); assay: Kinase activity assay, Kit; details: under the test conditions employed; read-out: activity toward kinase Kit, IC50
Experimental: as §1

B-Raf V600E/T529I = B-Raf V600E/T529I (Homo sapiens, UniProt P15056, T529I/V600E); assay: Kinase activity assay, B-Raf V600E/T529I; details: under the test conditions employed; read-out: activity toward kinase B-Raf V600E/T529I, IC50
Experimental: as §1

B-Raf = B-Raf (Homo sapiens, UniProt P15056); assay: Kinase activity assay, B-Raf; details: under the test conditions employed; read-out: activity toward kinase B-Raf, IC50
Experimental: as §1

B-Raf V600E = B-Raf V600E (Homo sapiens, UniProt P15056, V600E); assay: Kinase activity assay, B-Raf V600E; details: under the test conditions employed; read-out: activity toward kinase B-Raf V600E, IC50
Experimental: as §1

c-Raf-1 = c-Raf-1 (Homo sapiens, UniProt P04049); assay: Kinase activity assay, c-Raf-1; details: under the test conditions employed; read-out: activity toward kinase c-Raf-1, IC50
Experimental: as §1

Flt1 = Flt1 (Homo sapiens, UniProt P17948); assay: Kinase activity assay, Flt1; details: under the test conditions employed; read-out: activity toward kinase Flt1, IC50
Experimental: as §1

Fms = Fms (Homo sapiens, UniProt P07333); assay: Kinase activity assay, Fms; details: under the test conditions employed; read-out: activity toward kinase Fms, IC50
Experimental: as §1

Src = Src (Homo sapiens, UniProt P12931); assay: Kinase activity assay, Src; details: under the test conditions employed; read-out: activity toward kinase Src, IC50
Experimental: as §1

Btk = Btk (Homo sapiens, UniProt Q06187); assay: Kinase activity assay, Btk; details: under the test conditions employed; read-out: activity toward kinase Btk, IC50
Experimental: as §1

Measured: IC50

Chain of B-Raf V600E/T529I (P15056 whole entry T529I/V600E): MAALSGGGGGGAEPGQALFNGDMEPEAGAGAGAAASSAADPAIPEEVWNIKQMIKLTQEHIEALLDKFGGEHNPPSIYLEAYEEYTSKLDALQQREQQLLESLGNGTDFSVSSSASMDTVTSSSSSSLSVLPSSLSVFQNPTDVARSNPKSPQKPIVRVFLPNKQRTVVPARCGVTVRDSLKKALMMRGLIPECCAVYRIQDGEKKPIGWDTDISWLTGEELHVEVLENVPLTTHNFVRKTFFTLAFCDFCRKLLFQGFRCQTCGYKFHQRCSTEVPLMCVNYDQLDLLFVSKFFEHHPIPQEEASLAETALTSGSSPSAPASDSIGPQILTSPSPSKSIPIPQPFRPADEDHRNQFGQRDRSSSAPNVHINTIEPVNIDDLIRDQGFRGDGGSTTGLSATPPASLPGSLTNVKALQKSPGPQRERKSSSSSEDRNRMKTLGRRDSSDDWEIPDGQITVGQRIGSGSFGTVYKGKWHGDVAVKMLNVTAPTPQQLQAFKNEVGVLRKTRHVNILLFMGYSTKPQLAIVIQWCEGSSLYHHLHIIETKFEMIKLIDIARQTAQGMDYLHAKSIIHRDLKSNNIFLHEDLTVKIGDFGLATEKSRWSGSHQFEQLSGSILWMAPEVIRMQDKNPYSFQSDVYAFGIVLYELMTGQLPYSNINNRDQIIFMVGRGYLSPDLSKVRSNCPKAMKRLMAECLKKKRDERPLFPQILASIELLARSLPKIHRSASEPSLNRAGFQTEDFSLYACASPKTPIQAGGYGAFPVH
Chain of B-Raf (P15056 whole entry): as the sequence (P15056 whole entry T529I/V600E) above, with I529T, E600V counted along it
Chain of Src (P12931 whole entry): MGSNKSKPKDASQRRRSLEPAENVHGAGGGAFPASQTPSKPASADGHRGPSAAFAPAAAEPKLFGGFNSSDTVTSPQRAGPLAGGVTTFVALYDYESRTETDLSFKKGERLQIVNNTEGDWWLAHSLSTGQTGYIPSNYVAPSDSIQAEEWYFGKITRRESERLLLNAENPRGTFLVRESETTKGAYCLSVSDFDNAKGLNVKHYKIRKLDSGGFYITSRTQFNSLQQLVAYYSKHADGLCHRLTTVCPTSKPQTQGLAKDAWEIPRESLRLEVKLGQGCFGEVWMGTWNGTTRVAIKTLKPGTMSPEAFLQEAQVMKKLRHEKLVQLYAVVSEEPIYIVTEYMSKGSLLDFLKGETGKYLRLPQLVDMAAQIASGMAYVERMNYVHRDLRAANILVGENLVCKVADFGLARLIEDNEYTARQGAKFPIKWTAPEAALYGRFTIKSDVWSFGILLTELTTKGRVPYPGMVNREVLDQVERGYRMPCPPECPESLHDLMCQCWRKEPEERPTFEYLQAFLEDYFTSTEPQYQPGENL
Chain of Kdr (P35968 20-1356): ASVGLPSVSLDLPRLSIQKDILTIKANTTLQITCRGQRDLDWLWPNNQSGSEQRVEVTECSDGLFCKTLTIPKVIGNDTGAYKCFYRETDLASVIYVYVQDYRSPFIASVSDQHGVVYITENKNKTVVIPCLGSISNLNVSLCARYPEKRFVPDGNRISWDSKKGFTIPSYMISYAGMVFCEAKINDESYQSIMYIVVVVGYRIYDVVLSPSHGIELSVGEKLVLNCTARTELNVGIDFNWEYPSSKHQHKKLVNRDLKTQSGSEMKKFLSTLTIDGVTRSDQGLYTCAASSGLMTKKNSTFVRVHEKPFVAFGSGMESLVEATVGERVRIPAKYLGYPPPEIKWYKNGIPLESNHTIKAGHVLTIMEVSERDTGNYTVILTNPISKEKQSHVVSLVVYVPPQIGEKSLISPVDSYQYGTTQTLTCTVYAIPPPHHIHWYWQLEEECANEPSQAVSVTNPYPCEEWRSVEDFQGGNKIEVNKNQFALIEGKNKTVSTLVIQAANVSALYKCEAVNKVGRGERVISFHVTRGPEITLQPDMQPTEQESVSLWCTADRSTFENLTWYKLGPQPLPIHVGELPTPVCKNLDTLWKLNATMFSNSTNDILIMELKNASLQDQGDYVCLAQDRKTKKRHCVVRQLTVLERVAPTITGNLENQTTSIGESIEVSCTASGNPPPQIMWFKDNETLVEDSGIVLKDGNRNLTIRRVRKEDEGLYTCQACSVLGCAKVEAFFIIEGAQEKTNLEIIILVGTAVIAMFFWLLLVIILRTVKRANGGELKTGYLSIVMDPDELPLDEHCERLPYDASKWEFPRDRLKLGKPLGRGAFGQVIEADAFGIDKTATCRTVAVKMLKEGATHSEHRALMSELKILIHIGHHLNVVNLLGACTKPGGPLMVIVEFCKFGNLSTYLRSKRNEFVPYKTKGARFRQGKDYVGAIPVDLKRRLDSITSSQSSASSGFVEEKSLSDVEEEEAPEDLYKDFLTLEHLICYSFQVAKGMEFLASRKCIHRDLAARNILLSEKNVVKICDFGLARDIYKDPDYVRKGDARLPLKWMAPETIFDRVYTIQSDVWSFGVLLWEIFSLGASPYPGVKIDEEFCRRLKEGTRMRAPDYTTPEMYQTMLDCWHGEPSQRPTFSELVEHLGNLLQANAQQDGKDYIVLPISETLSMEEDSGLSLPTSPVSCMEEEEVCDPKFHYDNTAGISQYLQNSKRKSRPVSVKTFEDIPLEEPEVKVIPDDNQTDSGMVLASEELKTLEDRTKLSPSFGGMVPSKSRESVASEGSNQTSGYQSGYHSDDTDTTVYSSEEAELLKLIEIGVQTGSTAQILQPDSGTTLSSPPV
Chain of Jnk1 (P45983 whole entry): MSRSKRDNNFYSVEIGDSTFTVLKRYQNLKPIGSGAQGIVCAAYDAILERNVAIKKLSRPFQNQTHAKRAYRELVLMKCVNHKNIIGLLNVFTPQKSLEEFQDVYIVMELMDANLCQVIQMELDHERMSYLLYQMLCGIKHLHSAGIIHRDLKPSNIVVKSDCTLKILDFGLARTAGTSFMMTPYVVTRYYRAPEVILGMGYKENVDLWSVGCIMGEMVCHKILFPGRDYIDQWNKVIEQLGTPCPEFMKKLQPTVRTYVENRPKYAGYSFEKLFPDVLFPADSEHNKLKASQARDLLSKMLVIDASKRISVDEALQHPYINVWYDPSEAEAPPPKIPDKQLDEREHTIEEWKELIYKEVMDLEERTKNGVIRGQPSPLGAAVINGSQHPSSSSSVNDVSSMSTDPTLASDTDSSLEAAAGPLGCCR
Chain of Fms (P07333 20-972): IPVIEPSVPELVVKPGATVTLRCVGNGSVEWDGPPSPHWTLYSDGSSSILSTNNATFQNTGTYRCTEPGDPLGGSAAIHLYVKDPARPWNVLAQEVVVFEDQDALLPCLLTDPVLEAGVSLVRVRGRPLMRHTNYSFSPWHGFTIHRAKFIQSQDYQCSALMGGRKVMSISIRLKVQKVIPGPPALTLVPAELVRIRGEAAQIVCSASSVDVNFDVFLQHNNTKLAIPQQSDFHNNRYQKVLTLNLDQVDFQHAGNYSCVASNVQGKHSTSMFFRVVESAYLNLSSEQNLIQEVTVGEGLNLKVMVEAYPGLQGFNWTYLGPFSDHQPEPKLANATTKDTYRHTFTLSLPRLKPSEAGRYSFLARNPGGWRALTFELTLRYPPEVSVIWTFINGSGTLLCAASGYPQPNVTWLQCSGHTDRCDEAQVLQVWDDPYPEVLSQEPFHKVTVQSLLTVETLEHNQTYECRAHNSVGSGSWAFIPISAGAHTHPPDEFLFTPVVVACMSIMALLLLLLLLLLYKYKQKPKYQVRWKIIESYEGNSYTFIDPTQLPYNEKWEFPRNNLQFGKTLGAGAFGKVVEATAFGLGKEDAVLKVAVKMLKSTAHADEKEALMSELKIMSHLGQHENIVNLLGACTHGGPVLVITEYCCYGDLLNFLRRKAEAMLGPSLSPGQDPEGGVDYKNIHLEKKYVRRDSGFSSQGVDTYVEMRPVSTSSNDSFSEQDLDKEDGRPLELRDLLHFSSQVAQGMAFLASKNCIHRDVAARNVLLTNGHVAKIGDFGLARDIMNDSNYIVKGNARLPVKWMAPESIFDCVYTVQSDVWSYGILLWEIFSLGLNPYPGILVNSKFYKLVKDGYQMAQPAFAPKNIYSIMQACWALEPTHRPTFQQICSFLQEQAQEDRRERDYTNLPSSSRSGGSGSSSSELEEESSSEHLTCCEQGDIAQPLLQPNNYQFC
Chain of B-Raf V600E (P15056 whole entry V600E): as the sequence (P15056 whole entry T529I/V600E) above, with I529T counted along it
Chain of Kit (P10721 26-976): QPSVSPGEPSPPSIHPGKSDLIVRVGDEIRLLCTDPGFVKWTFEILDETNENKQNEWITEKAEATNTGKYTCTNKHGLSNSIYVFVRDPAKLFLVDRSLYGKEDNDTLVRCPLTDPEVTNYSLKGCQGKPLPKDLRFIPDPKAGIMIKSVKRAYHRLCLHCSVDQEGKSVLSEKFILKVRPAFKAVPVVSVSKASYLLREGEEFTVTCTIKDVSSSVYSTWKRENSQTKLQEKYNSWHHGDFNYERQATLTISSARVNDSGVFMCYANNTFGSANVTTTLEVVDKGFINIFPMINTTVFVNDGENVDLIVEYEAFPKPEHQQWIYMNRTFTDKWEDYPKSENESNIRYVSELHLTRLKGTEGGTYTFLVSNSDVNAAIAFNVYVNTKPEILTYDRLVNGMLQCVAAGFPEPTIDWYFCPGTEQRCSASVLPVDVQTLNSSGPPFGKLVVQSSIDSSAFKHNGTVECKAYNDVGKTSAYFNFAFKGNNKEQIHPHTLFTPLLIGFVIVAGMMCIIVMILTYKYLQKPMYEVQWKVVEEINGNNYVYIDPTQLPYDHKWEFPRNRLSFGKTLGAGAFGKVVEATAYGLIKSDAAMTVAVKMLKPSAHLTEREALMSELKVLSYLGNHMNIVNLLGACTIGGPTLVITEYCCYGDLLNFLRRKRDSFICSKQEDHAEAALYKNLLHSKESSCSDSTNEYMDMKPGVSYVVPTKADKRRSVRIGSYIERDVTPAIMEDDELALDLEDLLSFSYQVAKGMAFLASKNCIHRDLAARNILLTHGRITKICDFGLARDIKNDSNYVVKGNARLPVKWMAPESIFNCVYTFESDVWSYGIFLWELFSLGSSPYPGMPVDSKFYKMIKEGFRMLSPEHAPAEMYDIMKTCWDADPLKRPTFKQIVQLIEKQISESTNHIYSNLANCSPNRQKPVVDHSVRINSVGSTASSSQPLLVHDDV

c1cc2cc(OC3CCCC3)cnc2[nH]1 [P-0001, 5-cyclopentyloxy-1H-pyrrolo[2,3-b]pyridine]
≤ 10 µM: Jnk1 | Kdr | Kit

c1ccc(COc2cnc3[nH]ccc3c2)cc1 [P-0002, 5-(benzyloxy)-1H-pyrrolo[2,3-b]pyridine]
≤ 10 µM: Jnk1 | Kdr | Kit

COc1cccc(COc2cnc3[nH]ccc3c2)c1 [P-0003, 5-(3-methoxybenzyloxy)-1H-pyrrolo[2,3-b]pyridine]
≤ 10 µM: Kdr

COc1ccc(COc2cnc3[nH]ccc3c2)c(OC)c1 [P-0008, 5-(2,4-dimethoxybenzyloxy)-1H-pyrrolo[2,3-b]pyridine]
≤ 10 µM: B-Raf V600E/T529I

COCCOc1cnc2[nH]ccc2c1 [P-0009, 5-(2-methoxyethoxy)-1H-pyrrolo[2,3-b]pyridine]
≤ 10 µM: B-Raf | B-Raf V600E

FC(F)Oc1ccc(COc2cnc3[nH]ccc3c2)cc1 [P-0014, 5-(4-(difluoromethoxy)benzyloxy)-1H-pyrrolo[2,3-b]pyridine]
≤ 10 µM: Kdr

c1cc2cc(OCC3CCOCC3)cnc2[nH]1 [P-0019, 5-((tetrahydro-2H-pyran-4-yl)methoxy)-1H-pyrrolo[2,3-b]pyridine]
≤ 10 µM: B-Raf | B-Raf V600E

c1ccc(CN2CC[C@H](Oc3cnc4[nH]ccc4c3)C2)cc1 [P-0026, 5-((S)-1-benzylpyrrolidin-3-yloxy)-1H-pyrrolo[2,3-b]pyridine]
≤ 10 µM: B-Raf

CCCS(=O)(=O)Nc1ccc(F)c(C(=O)c2c[nH]c3ncc(OC4CCCC4)cc23)c1F [P-0033, propane-1-sulfonic acid [3-(5-cyclopentyloxy-1H-pyrrolo[2,3-b]pyridine-3-carbonyl)-2,4-difluoro-phenyl]-amide]
not listed: Btk
≤ 10 µM: all other assays above

CCCS(=O)(=O)Nc1ccc(F)c(C(=O)c2c[nH]c3ncc(OCc4ccccc4)cc23)c1F [P-0034, Propane-1-sulfonic acid [3-(5-benzyloxy-1H-pyrrolo[2,3-b]pyridine-3-carbonyl)-2,4-difluoro-phenyl]-amide]
≤ 10 µM: B-Raf | B-Raf V600E | B-Raf V600E/T529I | c-Raf-1 | Flt1 | Kdr

c1ccc(Oc2cnc3[nH]ccc3c2)cc1 [P-0035, 5-phenoxy-1H-pyrrolo[2,3-b]pyridine]
≤ 10 µM: Fms | Kdr | Kit

O=C(c1ccc(Cl)cc1Cl)c1c[nH]c2ncc(Oc3ccccc3)cc12 [P-0036, (2,4-dichloro-phenyl)-(5-phenoxy-1H-pyrrolo[2,3-b]pyridin-3-yl)-methanone]
≤ 10 µM: Btk | Fms | Kdr | Kit

Clc1ccc(Cc2c[nH]c3ncc(Oc4ccccc4)cc23)c(Cl)c1 [P-0037, 3-(2,4-dichloro-benzyl)-5-phenoxy-1H-pyrrolo[2,3-b]pyridine]
≤ 10 µM: Fms | Kdr | Kit

CS(=O)(=O)c1ccc(Oc2cnc3[nH]cc(C(=O)c4ccc(F)cc4Cl)c3c2)cc1 [P-0038, (2-Chloro-4-fluoro-phenyl)-[5-(4-methanesulfonyl-phenoxy)-1H-pyrrolo[2,3-b]pyridin-3-yl]-methanone]
≤ 10 µM: Flt1 | Kdr

O=C(O)Cc1cccc(Oc2cnc3[nH]cc(C(=O)c4ccc(F)cc4Cl)c3c2)c1 [P-0039, {3-[3-(2-Chloro-4-fluoro-benzoyl)-1H-pyrrolo[2,3-b]pyridin-5-yloxy]-phenyl}-acetic acid]
≤ 10 µM: B-Raf V600E/T529I | Btk | Fms | Kdr | Kit

O=C(c1ccc2cc[nH]c2c1)c1c[nH]c2ncc(OC3CCCC3)cc12 [P-0040, (5-Cyclopentyloxy-1H-pyrrolo[2,3-b]pyridin-3-yl)-(1H-indol-6-yl)-methanone]
≤ 10 µM: B-Raf V600E/T529I | Flt1 | Fms | Jnk1 | Kdr | Kit

CCCS(=O)(=O)Nc1ccc(F)c(C(=O)c2c[nH]c3ncc(OCCN4CCOCC4)cc23)c1F [P-0041, Propane-1-sulfonic acid {2,4-difluoro-3-[5-(2-morpholin-4-yl-ethoxy)-1H-pyrrolo[2,3-b]pyridine-3-carbonyl]-phenyl}-amide]
≤ 10 µM: B-Raf | B-Raf V600E | Kdr | Src

CCCS(=O)(=O)Nc1ccc(F)c(C(=O)c2c[nH]c3ncc(OC4CCOCC4)cc23)c1F [P-0045, Propane-1-sulfonic acid {2,4-difluoro-3-[5-(tetrahydro-pyran-4-yloxy)-11H-pyrrolo[2,3-b]pyridine-3-carbonyl]-phenyl}-amide]
not listed: Jnk1 | c-Raf-1 | Flt1 | Btk
≤ 10 µM: all other assays above

CCCS(=O)(=O)Nc1ccc(F)c(C(=O)c2c[nH]c3ncc(S(=O)(=O)c4ccc(C)cc4)cc23)c1F [P-0047, Propane-1-sulfonic acid {2,4-difluoro-3-[5-(toluene-4-sulfonyl)-1H-pyrrolo[2,3-b]pyridine-3-carbonyl]-phenyl}-amide]
≤ 10 µM: B-Raf | B-Raf V600E | Kdr
